Experimental data reported in US10350271B2, “Lipidated peptides for lowering blood glucose” (USTAV ORGANICKE CHEMIE A BIOCHEMIE AKADEMIE VED CR, V.V.I., priority 2014, dated 2019).
Square brackets hold non-standard residues; d marks the D form. Peptide text beside a SMILES is read from it. * marks the point of attachment. Phe(4-NO2) = N[C@@H](Cc1ccc([N+](=O)[O-])cc1)C(=O)O; Phe(3,4-Cl2) = N[C@@H](Cc1ccc(Cl)c(Cl)c1)C(=O)O; Phe(F5) = N[C@@H](Cc1c(F)c(F)c(F)c(F)c1F)C(=O)O; Myristoyl = CCCCCCCCCCCCCC(=O)*; NMeA = CN[C@@H](C)C(=O)O; Nle = CCCC[C@H](N)C(=O)O

Tests used:
rat PrRP receptor = target: T1, rat PrRP receptor (Rattus norvegicus, UniProt Q64121); experiment: Competitive binding in RC-4B/C rat pituitary cells (125I-rat PrRP31); details: for % of PrRP31, RC-4B/C rat pituitary cells: affinity relative to PrRP31; for Ki: RC-4B/C cells, displacement of 125I-rat PrRP31, read-out: Ki, RC-4B/C rat pituitary cells ^25I-rat PrRP31
T1 construct: host or cells: RC-4B/C rat pituitary cell line
T1 sequence (Q64121 1-370): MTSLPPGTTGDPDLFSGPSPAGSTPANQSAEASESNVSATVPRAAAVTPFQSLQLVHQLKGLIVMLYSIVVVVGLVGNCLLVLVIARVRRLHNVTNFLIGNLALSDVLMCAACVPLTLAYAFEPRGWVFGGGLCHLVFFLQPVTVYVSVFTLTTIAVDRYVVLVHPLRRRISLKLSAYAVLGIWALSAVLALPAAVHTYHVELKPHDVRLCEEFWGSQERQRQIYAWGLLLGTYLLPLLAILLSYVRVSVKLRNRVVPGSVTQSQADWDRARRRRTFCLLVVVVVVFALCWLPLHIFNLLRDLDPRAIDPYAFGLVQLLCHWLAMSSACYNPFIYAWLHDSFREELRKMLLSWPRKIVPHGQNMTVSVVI
Description: (§1) Competitive binding experiments were performed according to Motulsky and Neubig (Motulsky, A., et al., “Analyzing radioligand binding data,” Curr Protoc Neurosci, Chapter 7, Unit 7.5, 2002). Binding experiments were conducted with rat pituitary cells, and with Chinese Hamster Ovary (CHO) cells as follows:
The rat pituitary cell line RC-4B/C (ATCC, Manassas, USA) was grown on 24-well plates which had their bottom coated with polyethyleneimine. The cells were grown to the optimal density of 300-450 thousand cells per well. The following agents were used for the experiment: binding buffer (20 mmol·l^−1 HEPES, Ph 7.4; 118 mmol·l^−1 NaCl, 4.7 mmol·l^−1 KCl, 5 mmol·l^−1 MgCl2, 5.5 mmol·l^−1 glucose, 1 mg/ml BSA, 0.1 BPTI), unlabeled analogs of PrRP (i.e. the analog being tested) at a final concentration between 10^−11 to 10^−4 mol·l^−1, and rat ^125I-PrRP31 (labeled with radioactive Iodine-125) at a final concentration of […] (Maixnerová et al., 2011).
(§2) Plates were incubated for 60 minutes at room temperature. After incubation, the cells were solubilized in 0.1 mol/l solution of NaOH, and the radioactivity bound to the cells was counted using a γ-counter. The experiments were performed in duplicate, and repeated at least three times.
(§3) Graph Pad Prism Software (San Diego, Calif., USA) was used for evaluating the competitive binding experiments. Nonlinear regression was performed using a onsite binding model.

[1] = target: T2, human PrRP receptor GPR10 (Homo sapiens, UniProt P49683); experiment: Competitive binding in CHO cells transfected with human GPR10 (human 125I-PrRP31); details: for % of PrRP31, GPR10 human receptor transfected in CHO cells: affinity relative to PrRP31; for Ki: CHO cells, human 125I-PrRP31, read-out: Ki, GPR10 human receptor transfected in CHO cells
T2 construct: host or cells: CHO cells
T2 sequence (P49683 1-370): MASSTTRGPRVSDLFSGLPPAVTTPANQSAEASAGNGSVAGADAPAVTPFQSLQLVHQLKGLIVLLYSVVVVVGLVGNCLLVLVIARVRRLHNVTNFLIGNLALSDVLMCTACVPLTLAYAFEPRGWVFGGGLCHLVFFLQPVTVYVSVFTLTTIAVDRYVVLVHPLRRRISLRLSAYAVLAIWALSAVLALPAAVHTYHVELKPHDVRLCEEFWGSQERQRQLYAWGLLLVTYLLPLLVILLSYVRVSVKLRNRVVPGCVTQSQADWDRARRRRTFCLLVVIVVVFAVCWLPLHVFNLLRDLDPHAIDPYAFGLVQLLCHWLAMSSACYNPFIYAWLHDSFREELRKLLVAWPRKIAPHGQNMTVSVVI
Description: as §1
CHO cells transfected with human PrRP receptor GPR10 (Perkin Elmer, USA) were grown on 24-well plates coated with polyethyleneimine. The cells were grown to the optimal density of 40-80 thousand cells per well. The following agents were used for the experiment: binding buffer (25 mmol·l^−1 Tris, pH 7.4; 118 mmol·l^−1 NaCl, 10 mmol·l^−1 MgCl2, 10 mmol·l^−1 CaCl2, 5.5 mmol·l^−1 glucose, 0.5 mg/ml BSA), unlabeled analogs of PrRP (i.e. the analog being tested) at a final concentration between 10^−11 to 10^−4 mol·l^−1, and radiolabeled human ^125I-PrRP31 at a final concentration of 5×10^−11 mol·l^−1.
as §2, §3

% of PrRP31, RC-4B/C rat pituitary cells (rat PrRP receptor) [%]	% of PrRP31, GPR10 human receptor transfected in CHO cells [1] [%]	Ki (rat PrRP receptor) [nM]	Ki [1] [nM]	Compound
51	45			CCCC[C@H](NC(=O)[C@H](CO)NC(=O)[C@H](Cc1c[nH]cn1)NC(=O)[C@H](CCC(N)=O)NC(=O)[C@H](Cc1c[nH]cn1)NC(=O)[C@H](C)NC(=O)[C@H](CCCNC(=N)N)NC(=O)[C@@H](N)CO)C(=O)N[C@@H](CCC(=O)O)C(=O)N[C@H](C(=O)N[C@@H](CCCNC(=N)N)C(=O)N[C@H](C(=O)N1CCC[C@H]1C(=O)N[C@@H](CC(=O)O)C(=O)N[C@H](C(=O)N[C@@H](CC(N)=O)C(=O)N1CCC[C@H]1C(=O)N[C@@H](C)C(=O)N[C@@H](Cc1c[nH]c2ccccc12)C(=O)N[C@@H](Cc1ccc(O)cc1)C(=O)N[C@H](C(=O)NCC(=O)N[C@@H](CCCNC(=N)N)C(=O)NCC(=O)N[C@H](C(=O)N[C@@H](CCCNC(=N)N)C(=O)N1CCC[C@H]1C(=O)N[C@H](C(=O)NCC(=O)N[C@@H](CCCNC(=N)N)C(=O)N[C@@H](Cc1c(F)c(F)c(F)c(F)c1F)C(N)=O)C(C)C)[C@@H](C)CC)[C@@H](C)O)[C@@H](C)CC)[C@@H](C)O)[C@@H](C)O [Analog 21] (H-SRAHQHS[Nle]ETRTPDINPAWYTGRGIRPVGR[Phe(F5)]-NH2)
250	245	1.97 ± 1.26	1.59 ± 1.05	CCCCCCCCCCCCCC(=O)N[C@@H](CO)C(=O)N[C@@H](CCCNC(=N)N)C(=O)N[C@@H](C)C(=O)N[C@@H](Cc1c[nH]cn1)C(=O)N[C@@H](CCC(N)=O)C(=O)N[C@@H](Cc1c[nH]cn1)C(=O)N[C@@H](CO)C(=O)N[C@@H](CCCC)C(=O)N[C@@H](CCC(=O)O)C(=O)N[C@H](C(=O)N[C@@H](CCCNC(=N)N)C(=O)N[C@H](C(=O)N1CCC[C@H]1C(=O)N[C@@H](CC(=O)O)C(=O)N[C@H](C(=O)N[C@@H](CC(N)=O)C(=O)N1CCC[C@H]1C(=O)N[C@@H](C)C(=O)N[C@@H](Cc1c[nH]c2ccccc12)C(=O)N[C@@H](Cc1ccc(O)cc1)C(=O)N[C@H](C(=O)NCC(=O)N[C@@H](CCCNC(=N)N)C(=O)NCC(=O)N[C@H](C(=O)N[C@@H](CCCNC(=N)N)C(=O)N1CCC[C@H]1C(=O)N[C@H](C(=O)NCC(=O)N[C@@H](CCCNC(=N)N)C(=O)N[C@@H](Cc1ccc([N+](=O)[O-])cc1)C(N)=O)C(C)C)[C@@H](C)CC)[C@@H](C)O)[C@@H](C)CC)[C@@H](C)O)[C@@H](C)O [Analog 17] (Myristoyl-SRAHQHS[Nle]ETRTPDINPAWYTGRGIRPVGR[Phe(4-NO2)]-NH2)
128	171	3.84 ± 0.93	2.27 ± 0.48	CCCC[C@H](NC(=O)[C@H](CO)NC(=O)[C@H](Cc1c[nH]cn1)NC(=O)[C@H](CCC(N)=O)NC(=O)[C@H](Cc1c[nH]cn1)NC(=O)[C@H](C)NC(=O)[C@H](CCCNC(=N)N)NC(=O)[C@@H](N)CO)C(=O)N[C@@H](CCC(=O)O)C(=O)N[C@H](C(=O)N[C@@H](CCCNC(=N)N)C(=O)N[C@H](C(=O)N1CCC[C@H]1C(=O)N[C@@H](CC(=O)O)C(=O)N[C@H](C(=O)N[C@@H](CC(N)=O)C(=O)N1CCC[C@H]1C(=O)N[C@@H](C)C(=O)N[C@@H](Cc1c[nH]c2ccccc12)C(=O)N[C@@H](Cc1ccc(O)cc1)C(=O)N[C@H](C(=O)NCC(=O)N[C@@H](CCCNC(=N)N)C(=O)NCC(=O)N[C@H](C(=O)N[C@@H](CCCNC(=N)N)C(=O)N1CCC[C@H]1C(=O)N[C@H](C(=O)NCC(=O)N[C@@H](CCCNC(=N)N)C(=O)N[C@@H](Cc1ccc(Cl)c(Cl)c1)C(N)=O)C(C)C)[C@@H](C)CC)[C@@H](C)O)[C@@H](C)CC)[C@@H](C)O)[C@@H](C)O [Analog 13] (H-SRAHQHS[Nle]ETRTPDINPAWYTGRGIRPVGR[Phe(3,4-Cl2)]-NH2; N-terminus assumed)
2.5	81	19.9 ± 5.9	4.8 ± 0.88	CCCC[C@H](NC(=O)[C@H](CO)NC(=O)[C@H](Cc1c[nH]cn1)NC(=O)[C@H](CCC(N)=O)NC(=O)[C@H](Cc1c[nH]cn1)NC(=O)[C@H](C)NC(=O)[C@H](CCCNC(=N)N)NC(=O)[C@@H](N)CO)C(=O)N[C@@H](CCC(=O)O)C(=O)N[C@H](C(=O)N[C@@H](CCCNC(=N)N)C(=O)N[C@H](C(=O)N1CCC[C@H]1C(=O)N[C@@H](CC(=O)O)C(=O)N[C@H](C(=O)N[C@@H](CC(N)=O)C(=O)N1CCC[C@H]1C(=O)N[C@@H](C)C(=O)N[C@@H](Cc1c[nH]c2ccccc12)C(=O)N[C@@H](Cc1ccc(O)cc1)C(=O)N[C@H](C(=O)NCC(=O)N[C@@H](CCCNC(=N)N)C(=O)NCC(=O)N[C@H](C(=O)N[C@@H](CCCNC(=N)N)C(=O)N1CCC[C@H]1C(=O)N[C@H](C(=O)NCC(=O)N[C@@H](CCCNC(=N)N)C(=O)N[C@@H](Cc1ccc([N+](=O)[O-])cc1)C(N)=O)C(C)C)[C@@H](C)CC)[C@@H](C)O)[C@@H](C)CC)[C@@H](C)O)[C@@H](C)O [Analog 16] (H-SRAHQHS[Nle]ETRTPDINPAWYTGRGIRPVGR[Phe(4-NO2)]-NH2; N-terminus assumed)
10	45			CC[C@H](C)[C@H](NC(=O)CNC(=O)[C@H](CCCNC(=N)N)NC(=O)[C@H](CO)NC(=O)[C@H](C)N(C)C(=O)[C@H](Cc1ccc(O)cc1)NC(=O)[C@H](Cc1c[nH]c2ccccc12)NC(=O)[C@H](C)NC(=O)[C@@H]1CCCN1C(=O)[C@H](CC(N)=O)NC(=O)[C@@H](NC(=O)[C@H](CC(=O)O)NC(=O)[C@@H]1CCCN1C(=O)[C@@H](N)[C@@H](C)O)[C@@H](C)CC)C(=O)N[C@@H](CCCNC(=N)N)C(=O)N1CCC[C@H]1C(=O)N[C@H](C(=O)NCC(=O)N[C@@H](CCCNC(=N)N)C(=O)N[C@@H](Cc1ccccc1)C(N)=O)C(C)C [Analog 29] (H-TPDINPAWY[NMeA]SRGIRPVGRF-NH2)
168	113			CCCC[C@H](N)C(=O)N[C@@H](CCC(=O)O)C(=O)N[C@H](C(=O)N[C@@H](CCCNC(=N)N)C(=O)N[C@H](C(=O)N1CCC[C@H]1C(=O)N[C@@H](CC(=O)O)C(=O)N[C@H](C(=O)N[C@@H](CC(N)=O)C(=O)N1CCC[C@H]1C(=O)N[C@@H](C)C(=O)N[C@@H](Cc1c[nH]c2ccccc12)C(=O)N[C@@H](Cc1ccc(O)cc1)C(=O)N[C@H](C(=O)NCC(=O)N[C@@H](CCCNC(=N)N)C(=O)NCC(=O)N[C@H](C(=O)N[C@@H](CCCNC(=N)N)C(=O)N1CCC[C@H]1C(=O)N[C@H](C(=O)NCC(=O)N[C@@H](CCCNC(=N)N)C(=O)N[C@@H](Cc1ccccc1)C(N)=O)C(C)C)[C@@H](C)CC)[C@@H](C)O)[C@@H](C)CC)[C@@H](C)O)[C@@H](C)O [Analog 35] (H-[Nle]ETRTPDINPAWYTGRGIRPVGRF-NH2)
